The source of these data is article PMC11243066, “Synthesis and Biological Evaluation of Novel Biased Mu-Opioid Receptor Agonists” (Molecules, 2024).

A value given as a limit tells only on which side of the number the result lay.

In data set [1] the test system is mice. Description: Hot-water tail withdrawal test. It counts as in vivo, CD-1 mice. The conditions noted are these: 20 mg/kg i.v. tail vein, 15 min post administration. On the procedure:
(§1) Food and water were provided ad libitum.
The hot-water tail withdrawal test was performed as described previously. In brief, the hot-water tail withdrawal test was conducted using a water bath maintained at 55 ± 0.5 °C. The distal 3 cm section of the mouse’s tail was immersed perpendicularly into the hot water. The duration for which the tail remained in the water was recorded as the initial tail withdrawal latency (TWL0). […] Following the administration of a single dose of the test compound (20 mg/kg, i.v.) or vehicle, the subsequent tail withdrawal latency (TWL) was measured at various time intervals (15, 30, 45, 60, and 90 min). To prevent potential tissue damage, a maximum cutoff latency of 16 s was enforced. Antinociception was quantified using the percentage of maximal possible effect (%MPE), calculated as %MPE = 100 × (TWL − TWL0)/(16 − TWL0).

The test system of data set [2] is mice. Description: Respiratory depression (blood pO2, blood gas analyzer). The following applies: single i.v. dose 20 mg/kg (morphine 4 mg/kg), 5-40 min.
Protocol: (§2) The mice were group-housed in a controlled temperature environment and subjected to a 12 h light/dark cycle (lights on from 07:00 to 19:00). Food and water were provided ad libitum. All animal procedures were conducted in accordance with the policies and recommendations of the International Association for the Study of Pain and the National Health and Animal Welfare Committee of the Beijing Institute of Pharmacology, with the aim of minimizing the number of animals used and their suffering.
The test system of data set [3] is mice. Nature of the data set: Physical dependence (naloxone-precipitated withdrawal jumping). The following applies: i.v. once daily for 5 days, PZM21 and 6a 20 mg/kg, morphine 2 mg/kg, jumps over 20 min.
Protocol: as §2
In data set [4] the target is T1, human μOR β-arrestin2 pathway (Homo sapiens, UniProt P35372).
T1 construct: β-galactosidase enzyme fragment (PathHunter complementation tag); host or cells: U2OS (U2OS/human μOR β-arrestin cells)
T1 sequence (P35372 whole entry, the tested form may be a part): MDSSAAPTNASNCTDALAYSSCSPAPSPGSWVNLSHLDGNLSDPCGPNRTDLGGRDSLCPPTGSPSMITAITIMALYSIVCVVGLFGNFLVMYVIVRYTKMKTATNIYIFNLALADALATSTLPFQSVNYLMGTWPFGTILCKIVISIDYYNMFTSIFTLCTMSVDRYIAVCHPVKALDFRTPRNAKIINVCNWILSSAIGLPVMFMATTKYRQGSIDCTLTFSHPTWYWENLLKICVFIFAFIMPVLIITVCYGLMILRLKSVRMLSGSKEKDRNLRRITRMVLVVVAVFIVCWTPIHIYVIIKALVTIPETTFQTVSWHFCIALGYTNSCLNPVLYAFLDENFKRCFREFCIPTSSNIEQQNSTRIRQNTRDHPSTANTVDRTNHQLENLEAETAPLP
Nature of the data set: cell-based. It counts as cell-based. The following applies: U2OS/human μOR β-arrestin cells, n = 3; for Emax: at the concentration printed in parentheses in the cell, read-out: Max Effect ± SEM (%), µOR β-arrestin recruitment assay. On the procedure:
In this assay, optical signal values were detected employing the PathHunter® (DiscoverX, Shanghai, China) Detection Kit assay method. The agonistic activity of tested compounds on the human μOR β-arrestin2 pathway was quantified using a β-galactosidase-based enzyme fragment complementation assay. In brief, tested compound dilutions (with final concentrations of 100 μM, 50 μM, 10 μM, 1 μM, 500 nM, 100 nM, 50 nM, 10 nM, 1 nM, and 100 pM) were produced in saline or DMSO in triplicate. Next, 100 nL of the tested compound solution per well was dispensed into a 384-well cell culture plate. The U2OS/human μOR β-arrestin cells were resuspended in Opti-MEM and counted to achieve a cell density of 4000 cells per well, and 20 μL from each well was seeded into the 384-well cell culture plate. The plate was subsequently incubated at 37 °C in the dark for 120 min. Post-incubation, the cell plate was equilibrated to room temperature for 10–20 min, and 5 μL of the detection reagent were added to each well. Following a 60 min incubation at 25 °C, chemiluminescent readings were obtained using the envision system.
The cells were maintained at 37 °C with 5% CO2 in McCoy’s 5a medium with supplements and cultivated utilizing precise techniques to ensure accurate, reproducible results. Cells were gently dissociated for assays to maintain receptor integrity and resuspended in Opti-MEM® for compatibility with the PathHunter® (DiscoverX, Shanghai, China). Detection Kit. Cell density was adjusted to 4000 cells per well in a 384-well plate, to ensure that a uniform monolayer was established for the β-galactosidase assay. After seeding and incubation in the dark at 37 °C to facilitate cell attachment, the plates were equilibrated to room temperature prior to compound treatment. Serial dilutions of the compounds were assessed for pharmacological effect. A detection reagent was then added to measure β-galactosidase activity as indicative of μ-opioid receptor and β-arrestin2 interaction. Following reagent incubation, chemiluminescence was quantified, providing quantitative data on compound agonistic activity. Throughout, meticulous aseptic technique and strict adherence to protocols were imperative to ensure the integrity of the pharmacological data derived from these studies.
A general note: Activated receptors often draw arrestin, which recruitment assays turn into a signal.

A further data set concerns the target T2, human μ-opioid receptor (Homo sapiens, UniProt P35372).
T2 construct: expressed in transfected cells; host or cells: CHO (CHO/μOR cells)
Nature of the data set: cell-based. It counts as cell-based. The following applies: CHO/μOR cells; for Emax: at the concentration printed in parentheses in the cell, read-out: Max Effect ± SEM (%), µOR-Gi/o activation assay. On the procedure: The inhibition assay was performed as described previously. In brief, tested compound dilutions (with final concentrations of 100 µM, 50 µM, 10 µM, 1 µM, 500 nM, 100 nM, 50 nM, 10 nM, 1 nM, and 100 pM) were produced in saline or DMSO in triplicate. CHO/μOR cells were suspended in the assay buffer and counted, maintaining a cell density of 2000 cells per well, with 5 µL from each well seeded into a 384-well plate. Subsequently, 5 µL of the tested compound solution per well was dispensed into the plate, which was then placed in a 25 °C incubator and incubated in the dark for 30 min. Next, 10 µL of cAMP standard working solution was added to the empty wells of the plate, followed by the addition of 5 µL of Eu-cAMP and Anti-cAMP per well. The plate was subsequently placed back in a 25 °C incubator and further incubated in the dark for 1 h.
CHO cells expressing the human μ-opioid receptor were cultivated for the assessment of compound effects. […] Cells collected during the exponential phase of growth were dissociated without enzymes to preserve receptor integrity, resuspended in assay buffer, and counted to achieve a uniform concentration. Cell density was adjusted to 2000 cells per well in a 384-well plate, promoting uniform distribution and optimal receptor presence. Post-seeding at 25 °C in darkness facilitated cell adherence and stabilization prior to compound introduction. Compounds were added in serial dilutions, with meticulous dispensing techniques ensuring dose uniformity. Following a 1 h incubation at 25 °C, TR-FRET reagents were applied to measure cAMP levels, indicative of μOR activity. The Envision system recorded these levels, quantifying compound inhibitory effects. Meticulous aseptic techniques and vigilant monitoring were imperative throughout to guarantee data precision from the assay.

Data set [5] has as its system mice. Nature of the data set: Formalin paw-licking test. It counts as in vivo, CD-1 mice. The following applies: 20 mg/kg i.v. tail vein, Phase II. The method, then: as §1
The formalin injection assay was performed as described previously. […] After 15 min, 30 µL of a 2.7% formalin solution was administered into the right hind paw of each mouse. Then, the mice were put into the cage and their behaviors were observed. The antinociception rate was quantified as the percentage of maximal possible effect (%MPE), calculated as %MPE = 100 × (PLTV − PLTT)/PLTV; PLTV and PLTT represent the average paw-licking duration during Phase II for the vehicle and test groups, respectively.

The subject of data set [6] is mice. Nature of the data set: Acetic acid-induced writhing test. It counts as in vivo, CD-1 mice. The following applies: 20 mg/kg i.v. tail vein. On the procedure: as §1
The acetic acid-induced writhing test was performed as described previously. In brief, after pretreatment with the test compound at a dose of 20 mg/kg via intravenous tail vein injection, 1% (v/v) glacial acetic acid was administered intraperitoneally (i.p.) at a dose of 10 mL/kg. Subsequently, the number of writhing responses over a 20 min period was recorded. The antinociception rate was calculated as the percentage of maximal possible effect (%MPE), where %MPE = 100 × (NWV − NWT)/NWV. NWV and NWT represent the average number of writhing responses of the vehicle and test groups, respectively.

T2 sequence (P35372 whole entry): as the sequence (P35372 whole entry, the tested form may be a part) above

On to `C[C@@H](Cc1ccsc1)NC(=O)NC[C@H](Cc1ccc(O)cc1)N(C)C` [PZM21, reference compound], for which the “pain inhibition rate (%MPE), hot-water tail-withdrawal test” value in the data set with mice [1] is reported as 69.23%. In the data set with mice [2], the “respiratory depression: partial pressure of oxygen in blood vs vehicle” value is on record as “neither the 6a group nor the PZM21 group demonstrated any reduction in respiratory measures”. The “physical dependence: jumping after naloxone-precipitated withdrawal vs vehicle” value in the data set on mice [3] is reported as “neither 6a nor PZM21 elicited a significant increase in withdrawal behaviors”. For the same compound, the Emax turned out to be 3.09 ± 0.42% in data set [4] and 89.8 ± 2.93% at human μ-opioid receptor (n = 3). In addition, the “µOR agonist efficacy in Gi/o-protein signaling assay (in words)” value on human μ-opioid receptor is “significant µOR agonist efficacy”. Besides, the “antinociceptive efficacy (%MPE), formalin-induced paw licking, second phase” value with mice [5] amounted to 72.72%.
On to `CN(C)[C@H](CNC(=O)NCc1ccccc1)Cc1cccc2ccccc12` [6a, (S)-1-benzyl-3-(2-(dimethylamino)-3-(naphthalen-1-yl)propyl) urea], for which the “pain inhibition rate (%MPE), hot-water tail-withdrawal test” value in the data set on mice [1] is on record as 50.19%. Besides, the “respiratory depression: partial pressure of oxygen in blood vs vehicle” value with mice [2] is “does not induce acute respiratory depression”. Besides, the “physical dependence: jumping after naloxone-precipitated withdrawal vs vehicle” value in the data set on mice [3] was “does not induce physical dependence or withdrawal symptoms”. Further, the “analgesia rate (%MPE), acetic acid-induced writhing” value in the data set with mice [6] was “exceeding 97%”. In addition, the Emax in data set [4] stood at 0.38 ± 0.21%; on human μ-opioid receptor (n = 3) it was 51.9 ± 1.06%. In addition, the EC50 in data set [4] ("-" = no measurable activity, read-out: EC50 (nM) (95% CI), µOR β-arrestin recruitment assay) was > 100000 nM; on human μ-opioid receptor (cAMP inhibition, n = 3, "-" = no measurable activity, read-out: EC50 (nM) (95% CI), µOR-Gi/o activation assay), 10.8 nM. Moreover, the “antinociceptive efficacy (%MPE), formalin-induced paw licking, second phase” value in the data set with mice [5] is given as 73.80%.
